Several values for one entry are separate records, joined by “and”; a condition that tells them apart may be missing. Equal values may be shown once. Ends that are not written are not given here.
Columns and labels:
[1] = test system: cultured cortical neurons; assay: Neuronal NMDA excitotoxicity assay (LDH release); assay type: cell-based, rat; conditions: 500 nM
From the text: When cultured cortical neurons are exposed to high concentrations of NMDA, an excitoxic cascade is initiated, which leads to cellular damage and ultimately neuronal cell death. Consequently, the cell membranes are destroyed, and cytoplasmic enzymes are released into the cell surroundings. The extent of this neuronal cell death can be quantified by measuring the release of cytoplasmic lactate dehydrogenase (LDH) enzyme into the cell medium. The compounds of interest and control compound (3) are investigated with respect to their abilities to attenuate NMDA-mediated toxicity. Compounds that are active in this assay are both membrane permeable, and can prevent ex vivo excitotoxicity, which are important properties for therapeutics towards excitotoxicity mediated diseases.
Cortical neurons were surgically removed from rats (e.g. E21) and then cultured for 7-9 days in vitro in Neurobasal A medium with B-27 supplement (each supplied by Invitrogen), further supplemented with 1 mM glutamine, 50 units/ml penicillin, and 50 μg/ml streptomycin. The following steps were then performed:
1. Samples of the cultured cortical neurons were removed from the Neurobasal-A based culture medium, at various time points prior to exposure to compound, and placed into “transfection medium” ([…]; as defined by Bading et al (1993) Science 260, 181-186) comprising: 10% modified Minimum Essential Medium (supplied by Invitrogen; product no: 21090022; containing Earles salt, but no L-glutamine), 90% Salt-Glucose-Glycine (SGG) medium: (114 mM NaCl, 0.219% NaHCO3, 5.292 mM KCL, 1 mM MgCl2, 2 mM CaCl2, 10 mM HEPES, 1 mM Glycine, 30 mM glucose, 0.5 mM sodium pyruvate, 0.1% Phenol Red), insulin-transferrin-selenite supplement (supplied by Sigma: 7.5 μg insulin/ml, 7.5 μg transferring/ml and 7.5 ng sodium selenite/ml); with a final osmolarity of 325 mosm/l. All subsequent steps were performed in this TM medium. 2. Samples of neurons are exposed to an NMDAR/PSD-95 inhibitor of the invention (compounds 40, 52-90) at a final concentration of between 0.05-50 μM for a period of between 0.5 to 1.5 hours. […] 3. Each sample of neurons was washed at least one time in TM medium to remove the NMDAR/PSD-95 inhibitor, and placed in TM medium. 4. After various periods of time, the samples of neurons were exposed to NMDA at a concentration of between 10-100 μM for a period of 0.5 to 1.5 hours, preferably 1 hour, after which the samples were again placed in TM medium for 24 hours. 5. LDH in the cell medium was quantified using commercial available kits (e.g. Promega Biotech AB, cat no G1780).

PDZ3 of PSD-95 = target: T1, PDZ3 of PSD-95 (Homo sapiens, UniProt P78352); assay: FP heterologous competition binding assay; conditions: for Ki: FP competition, mean ± SEM, NA = no activity/affinity
T1 construct: PDZ3 (residues 309-401); made in house; host or cells: E. coli BL21-DE3 pLysS
From the text: (§1) Determined IC50 values may be converted to Ki values.^5 Suitable fluorophores include either 5-FAM or Cy5, which may be coupled to a tripeptide (KSG or CSG) linker attached to the N-terminus of the undecapeptide, to give 5-FAM-NR2B, Cy5-NR2B, 5-FAM-CRIPT and Cy5-CRIPT. The 5-FAM fluorophore may be attached to the undecapeptides by coupling with HATU. The Cy5 fluorophore may be conjugated to the undecapeptides by coupling Cy5-maleimide to the cysteine side chain of the tripeptide sequence CSG attached to the N-terminus of the peptide, as detailed in the Methodology section.
(§2) To measure the affinities between non-fluorescent peptides and PDZ domains, heterologous competition bindings assay were performed. This was done by adding increasing concentrations of peptide to a fixed concentration of Cy5-NR2B, 5-FAM-NR2B, Cy5-CRIPT or 5-FAM-CRIPT (50 nM) and PDZ (20 μM for PDZ1, 3 μM for PDZ2 and 1-2 and 5 μM for PDZ3) in the same TBS buffer and conditions as described above. FP values were then fitted to the general equation: Y=Bottom+(Top−Bottom)/[1[…](10̂^X-logIC50)], where X is the logarithmic value of peptide concentration. Hereby the IC50 value was obtained, which is used to calculate the theoretical competitive inhibition constant, Ki.^5
(§3) A convenient and reliable way to examine interactions between peptide analogues and PDZ domains is by using a fluorescence polarization (FP) assay. The three PDZ domains, PDZ1-3, of PSD-95 were expressed individually as set out above, while PDZ1-2 was also expressed as a tandem construct. […] IC50 values were then converted to Ki values.^5

PDZ1 of PSD-95 = target: T2, PDZ1 of PSD-95 (Homo sapiens, UniProt P78352); assay: FP heterologous competition binding assay; conditions: for Ki: FP competition, mean ± SEM, NA = no activity/affinity
T2 construct: PSD-95 PDZ1 (residues 61-151); made in house; host or cells: E. coli BL21-DE3 pLysS
From the text: as §1, §2, §3

PDZ1-2 tandem of PSD-95 = target: T3, PDZ1-2 tandem of PSD-95 (Homo sapiens, UniProt P78352); assay: FP heterologous competition binding assay; conditions: mean ± SEM
T3 construct: PDZ1-2 (residues 61-249) tandem; made in house; host or cells: E. coli BL21-DE3 pLysS
From the text: as §1, §2, §3

PDZ2 of PSD-95 = target: T4, PDZ2 of PSD-95 (Homo sapiens, UniProt P78352); assay: FP heterologous competition binding assay; conditions: for Ki: FP competition, mean ± SEM, NA = no activity/affinity
T4 construct: PDZ2 (residues 155-249); made in house; host or cells: E. coli BL21-DE3 pLysS
From the text: as §1, §2, §3

PDZ1-2 of PSD-95 = target: T5, PDZ1-2 of PSD-95 (Homo sapiens, UniProt P78352); assay: Isothermal titration calorimetry (ITC); assay type: binding
T5 construct: PDZ1-2 (residues 61-249) tandem; made in house; host or cells: E. coli BL21-DE3 pLysS
From the text: This technique (Pierce, M. et al., 1999., Methods, p. 213-221) provides an exact determination of the affinity of a ligand for its target protein, as well as measuring the thermodynamic properties of the interaction, including enthalpy (ΔH), entropy (ΔS) and free energy (ΔG) together with the stoichiometric relationship of ligand binding. In this method, un-labeled ligand is titrated into a solution of un-labeled PDZ protein located in the calorimeter. Heat generated upon protein recognition is measured (ΔH) during the titration of the ligand and the PDZ protein until saturation is achieved, and the heat-exchange upon further ligand addition is negligible. Based on the amount of ligand needed to achieve saturation an affinity constant (Kd) is calculated and in addition ΔH, ΔS, ΔG and stoichiometry are determined.
Calorimetry experiments were performed on a microcalorimeter (Microcal, MA, USA). The ligands were titrated directly into the PDZ solution. All ligands and PDZ proteins were solubilized in PBS buffer (137 mM NaCl, 2.7 mM KCl, 10 mM Na2HPO4, 2 mM KH2PO4, pH 7.4) and when necessary pH was adjusted to 7.4 within 0.02 pH units after solubilization. The concentration of peptide and PDZ in solution was quantified by amino acid analysis. The calorimetry experiments were conducted at 25° C., where the PDZ1-2 concentration was generally adjusted to about 20 μM (200 μL in calorimeter) and the ligand concentration to between 200-2500 μM (injected to the protein as 20×2 μL). Experiments were designed so that c-value (c-value=Ka*[Protein]*n; where Ka is the affinity association constant, [Protein] means protein concentration, and n is the stoichiometry of the reaction) was within 1-1000. The analysed solution was stirred at 1000 rpm, with a reference power of 6 μcal/s. Heats of dilution were initially determined by titrating the ligand into buffer and subtracting these baseline values from the observed “heat values”. The data from each titration experiment were collected by ORIGIN 7.0 (Microcal, MA, USA), which was also used to determine the thermodynamic properties of ligand binding using non-linear least-squares fitting assuming a single-site model.

[2] = Human blood plasma stability assay; assay type: in vitro ADME; conditions: human, plasma, Blood plasma half life (T1/2)
Method: In this assay, the half-life (T1/2) of a compound in blood plasma is measured in vitro, whereby its susceptibility to degradation by proteases, peptidases and general plasma contents is quantified.
Compounds of interest were dissolved in human blood plasma (270 μl; 3H Biomedical, Sweden, cat no 1300-1-P50) to a concentration of 0.25 mM (30 μL of 2.5 mM) and incubated at 37° C. Aliquots (30 μl) were removed at various time intervals (0, 5, 10, 20, 40, 80, 160, 320, 960, 1280, 2550, 4560 and 7240 min) and quenched with 60 μL trichloroacetic acid (aq., 5%). The aliquots were vortexed, and incubated for at least 15 min, at 4° C. prior to centrifugation at 18,000 g for 2 min and the supernatant was analyzed by RP-HPLC to quantify the remaining compound (absorbance at 218 nm).

CC(C)[C@H](NC(=O)[C@H](C)NC(=O)[C@@H](NC(=O)[C@H](CCC(=O)O)NCCc1ccc2ccccc2c1)C(C)O)C(=O)O (stereo partly drawn) [Compound 63, N-(Naphtalene-2-yl)ethyl-ETAV]
effect on NMDA-mediated excitotoxicity, in words [1]: inhibit neuronal excitotoxicity, as efficiently as the clinical candidate Tat-N2B (3)
Ki (PDZ3 of PSD-95): 10 ± 0.22 µM
Ki (PDZ1 of PSD-95): 1 ± 0.33 µM

KSGYEKLSSIESDV-OH [NR2B (1), reference compound]
Ki (PDZ1-2 tandem of PSD-95): 7 ± 0.19 µM
Ki (PDZ2 of PSD-95): 4.1 ± 0.17 µM
affinity to PDZ3, in words (PDZ3 of PSD-95; FP assay): no binding
Ki (PDZ1 of PSD-95): 18 ± 0.92 µM

CC[C@H](C)[C@H](NC(=O)CCOCCOCCOCCOCCOCCC(=O)N[C@H](C(=O)N[C@@H](CCC(=O)O)C(=O)N[C@H](C(=O)N[C@@H](C)C(=O)N[C@H](C(=O)O)C(C)C)[C@@H](C)O)[C@@H](C)CC)C(=O)N[C@@H](CCC(=O)O)C(=O)N[C@H](C(=O)N[C@@H](C)C(=O)N[C@H](C(=O)O)C(C)C)[C@@H](C)O [(IETAV)2PEG4 (83), (IETAV)2PEG4]
fold greater affinity towards PDZ1-2 compared to Tat-NR2B (3) (WT or Tat-NR2B) (PDZ1-2 of PSD-95): about 1000 fold
Kd (PDZ1-2 of PSD-95; 25° C., PBS pH 7.4, mean ± SEM, read-out: ITC Kd PDZ12): 0.011 ± 0.01 µM
fold increase in ligand affinity by dimerization compared to monomeric IETAV (82) (PDZ1-2 of PSD-95; PDZ1-2): 176 fold
half-life at […] [2]: 6.82 h
Ki (PDZ1-2 tandem of PSD-95): ~0.1 µM
Ki (PDZ2 of PSD-95): 1.1 ± 0.07 µM

CC(C)[C@H](NC(=O)[C@H](C)NC(=O)[C@@H](NC(=O)[C@H](CCC(=O)O)NCCC1CCCCC1)C(C)O)C(=O)O (stereo partly drawn) [Compound 56, N-Cyclohexylethyl-ETAV]
effect on NMDA-mediated excitotoxicity, in words [1]: inhibit neuronal excitotoxicity, as efficiently as the clinical candidate Tat-N2B (3)
fold increase in affinity compared to NR2B peptide (1), PDZ2 (PDZ2 of PSD-95): 9 fold
selectivity towards PDZ2 relatively to PDZ3 (PDZ2 of PSD-95): 20 fold
Ki (PDZ2 of PSD-95): 0.45 ± 0.13 µM
Ki (PDZ3 of PSD-95): 11 ± 0.43 µM
fold increase in affinity (more potent) compared to NR2B peptide (1), PDZ1 (PDZ1 of PSD-95): ca. 19 fold
selectivity towards PDZ1 relatively to PDZ3 (PDZ1 of PSD-95): 10 fold
Ki (PDZ1 of PSD-95): 1 µM and 0.94 µM
